Measured values reported in patent publication US20200377485A1, “HYDANTOIN MODULATORS OF KV3 CHANNELS” (AUTIFONY THERAPEUTICS LIMITED, priority 2015, published 2020).
Values belong to the molecule of their own block, whether it stands above or below them.

Key:
[1] = General observations of behaviour during the pain studies; type: in vivo, rat; conditions: acute administration, 10-60 mg/kg i.p., neuropathic and inflammatory pain models
Text: In addition to behavioural pain readings, each rat was observed throughout the study for changes in general behaviour.

[2] = test system: rat model of persistent inflammatory pain; experiment: Persistent inflammatory pain model, intraplantar Freund's Complete Adjuvant, paw withdrawal threshold to mechanical force; type: in vivo
Description: (§1) Subjects comprised male, Wistar Hanover rats, 6 animals per group (225±2 g).
(§2) Vehicle (12% Captisol®; 0.5% w/v HPMC and 0.1% w/v Tween-80; 5 ml/kg via the intraperitoneal route) was prepared using autoclaved deionized water not more than one week prior to use.
(§3) The control for the neuropathic pain model was lamotrigine, administered at 30 mg/kg via oral delivery. The control for the inflammatory pain model was diclofenac, administered at 30 mg/kg via oral delivery. Statistical analysis was performed using one-way ANOVA, and comparisons were performed with time-matched vehicle group using Tukey's HSD test wherein * p<0.05, ** p<0.01, *** p<0.001.
Mechanical hyperalgesia was examined in a model of persistent inflammatory pain. […]
To assess the effect of the test compound, paw withdrawal thresholds were measured on both the ipsilateral (FCA-injected) and contralateral (non-injected) paws, prior to (naïve) and 24 h following FCA injection (predose), and then at 1, 3, 6 and 24 h after drug or vehicle administration.
Mechanical hyperalgesia was examined in a model of neuropathic pain by measuring paw withdrawal thresholds (PWT) to increasing mechanical force applied to the dorsal surface of the rat paw using an Analgesymeter (Ugo-Basile, Milan) equipped with a wedge-shaped probe (area 1.75 mm^2). […] Both ipsilateral and contralateral paw withdrawal readings were taken. […]

[3] = test system: rat model of neuropathic pain; experiment: Neuropathic pain model, partial ligation of the sciatic nerve, paw withdrawal threshold to mechanical force; type: in vivo
Description: as §1, §2
as §3, with “p<0.001. […]” for “p<0.001.”
Withdrawal thresholds were measured on both the ipsilateral (ligated) and contralateral (non-ligated) paws, prior to (predose) and then up to 24 h following drug or vehicle administration.
Pre-dose behavioural measurements were obtained by measuring paw withdrawals 14 days following nerve ligation; before the initiation of drug treatment. Following treatment, further readings were taken at 1, 3, 6 and 24 hour after administration. […]
Data were expressed as withdrawal threshold (g) and percentage reversals calculated according to the following formula: […]
Statistical analysis was carried out on withdrawal threshold readings using ANOVA with repeated measures followed by Tukey's HSD test. […]

[4] = biological target: T1, human Kv3.2 channels (hKv3.2) (Homo sapiens, UniProt Q96PR1); experiment: IonWorks Quattro electrophysiology, hKv3.2 stable CHO-K1 cell line (potentiation; secondary analysis of activation time Tauact); type: cell-based; conditions: -15 mV depolarising step; concentration chosen to give ~0.3 nA at end of pulse: RE1 6.25, RE3 0.2, RE9 0.2, Example 1 0.8 μM; vehicle 7.1 ms
T1 construct: expressed in transfected cells
T1 sequence (Q96PR1 1-638): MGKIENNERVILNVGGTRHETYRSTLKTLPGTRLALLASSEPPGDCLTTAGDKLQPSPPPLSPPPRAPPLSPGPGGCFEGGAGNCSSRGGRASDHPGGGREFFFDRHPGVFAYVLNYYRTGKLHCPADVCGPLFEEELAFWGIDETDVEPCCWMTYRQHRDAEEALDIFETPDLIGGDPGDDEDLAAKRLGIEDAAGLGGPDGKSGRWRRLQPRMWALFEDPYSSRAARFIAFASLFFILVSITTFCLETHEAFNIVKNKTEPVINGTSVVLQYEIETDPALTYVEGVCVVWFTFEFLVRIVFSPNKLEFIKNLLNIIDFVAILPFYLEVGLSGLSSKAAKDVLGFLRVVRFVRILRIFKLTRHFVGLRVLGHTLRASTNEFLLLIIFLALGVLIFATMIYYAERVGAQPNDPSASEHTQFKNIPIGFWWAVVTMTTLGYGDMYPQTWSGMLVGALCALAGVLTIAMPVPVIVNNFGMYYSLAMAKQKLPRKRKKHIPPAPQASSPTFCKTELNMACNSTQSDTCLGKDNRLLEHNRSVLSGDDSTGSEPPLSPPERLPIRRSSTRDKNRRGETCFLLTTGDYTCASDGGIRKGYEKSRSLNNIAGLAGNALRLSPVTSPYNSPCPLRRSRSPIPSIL

SMILES: Cc1ccc(Oc2ncc(N3C(=O)NC(C)(C)C3=O)cn2)c2c1OCC21CC1 [Compound X, 5,5-dimethyl-3-[2-(7-methylspiro[2H-benzofuran-3,1-cyclopropane]-4-yl)oxypyrimidin-5-yl]imidazolidine-2,4-dione]
changes in normal (general) behaviour [1]: without causing significant changes in normal behaviour
reversal of mechanical sensitivity, in words ([2]; 10, 30, 60 mg/kg i.p.): dose-related reversal of mechanical sensitivity with rapid onset of action
reversal of mechanical sensitivity, in words ([3]; 10, 30, 60 mg/kg i.p.): dose-related reversal of mechanical sensitivity with rapid onset and long duration of action

Tauact mean (activation time constant of hKv3.2 current) [4]: 18.2 ms
SMILES: CC[C@@]1(C)NC(=O)N(c2ccc(Oc3ccc(C)c4c3C3(CC3)CO4)cn2)C1=O [Example 1, (5R)-5-ethyl-5-methyl-3-[5-(7-methylspiro[2H-benzofuran-3,1′-cyclopropane]-4-yl)oxy-2-pyridyl]imidazolidine-2,4-dione]

Tauact mean (activation time constant of hKv3.2 current) [4]: 9.9 ms
SMILES: CC[C@H]1NC(=O)N(c2ccc(Oc3ccc(C)c(OC)c3)nc2)C1=O [RE1, (5R)-5-ethyl-3-(6-{[4-methyl-3-(methyloxy)phenyl]oxy}-3-pyridinyl)-2,4-imidazolidinedione]

Tauact mean (activation time constant of hKv3.2 current) [4]: 23.0 ms
SMILES: CC[C@H]1NC(=O)N(c2ccc(Oc3ccc(C#N)cc3C(C)(C)C)nc2)C1=O [RE3, 3-(1,1-dimethylethyl)-4-({5-[(4R)-4-ethyl-2,5-dioxo-1-imidazolidinyl]-2-pyridinyl}oxy)benzonitrile]

SMILES: O=C(O)Cc1ccccc1Nc1c(Cl)cccc1Cl [diclofenac]
peak reversal of mechanical sensitivity (positive control) ([2]; 30 mg/kg oral, 1 h post-dose): 64%

SMILES: Nc1nnc(-c2cccc(Cl)c2Cl)c(N)n1 [lamotrigine]
peak reversal of mechanical sensitivity (positive control) ([3]; 30 mg/kg oral, 3 h post-dose): 67%
